From ChEMBL document CHEMBL1127814, “Preferred orientations in the binding of 4'-hydroxyacetanilide (acetaminophen) to cytochrome P450 1A1 and 2B1 isoforms as determined by 13C- and 15N-NMR relaxation studies” (J Med Chem, 1994)

Tests used:
[1] = biological target: T1, Cytochrome P450 2B1 (Rattus norvegicus, UniProt P00176); assay: Spectral dissociation constant for rat liver Cytochrome P450 2B1; type: ADME; settings: read-out: Ks
T1 sequence (P00176 whole entry): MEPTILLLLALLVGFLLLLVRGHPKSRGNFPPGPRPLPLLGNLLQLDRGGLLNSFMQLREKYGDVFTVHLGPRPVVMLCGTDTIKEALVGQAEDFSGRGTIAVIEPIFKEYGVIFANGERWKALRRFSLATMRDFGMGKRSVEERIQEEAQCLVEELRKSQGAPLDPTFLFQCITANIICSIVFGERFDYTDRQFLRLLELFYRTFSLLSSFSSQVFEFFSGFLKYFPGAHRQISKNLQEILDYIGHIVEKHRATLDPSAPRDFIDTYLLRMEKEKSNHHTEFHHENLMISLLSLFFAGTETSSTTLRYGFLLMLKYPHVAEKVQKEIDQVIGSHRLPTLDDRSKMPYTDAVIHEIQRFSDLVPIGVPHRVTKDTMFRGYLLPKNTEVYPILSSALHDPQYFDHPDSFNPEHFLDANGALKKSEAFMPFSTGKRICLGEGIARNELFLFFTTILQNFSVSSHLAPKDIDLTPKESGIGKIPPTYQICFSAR

[2] = biological target: T2, Cytochrome P450 1A1 (Rattus norvegicus, UniProt P00185); assay: Spectral dissociation constant for rat liver Cytochrome P450 1A1; type: ADME; settings: read-out: Ks
T2 sequence (P00185 whole entry): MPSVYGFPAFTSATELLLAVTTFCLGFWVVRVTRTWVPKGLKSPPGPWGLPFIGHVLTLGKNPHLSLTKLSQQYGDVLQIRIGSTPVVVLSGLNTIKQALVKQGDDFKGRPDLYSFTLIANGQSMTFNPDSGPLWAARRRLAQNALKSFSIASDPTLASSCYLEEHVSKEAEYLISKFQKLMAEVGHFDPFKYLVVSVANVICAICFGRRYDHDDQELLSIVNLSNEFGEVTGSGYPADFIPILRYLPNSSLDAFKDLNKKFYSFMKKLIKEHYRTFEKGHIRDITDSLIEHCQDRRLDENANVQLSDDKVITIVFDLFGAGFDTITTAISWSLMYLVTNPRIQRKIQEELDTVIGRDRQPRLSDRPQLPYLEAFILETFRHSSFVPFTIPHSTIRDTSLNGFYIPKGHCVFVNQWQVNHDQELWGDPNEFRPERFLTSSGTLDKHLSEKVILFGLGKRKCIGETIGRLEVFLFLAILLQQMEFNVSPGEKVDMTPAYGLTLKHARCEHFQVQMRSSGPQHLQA

Kd [1]: 800 µM
Kd [2]: 870 µM
Compound: CC(=O)Nc1ccc(O)cc1 [ACETAMINOPHEN]
